Our source for the Ki values is ChEMBL document CHEMBL1141441, “Crystallographic investigation of the inhibition mode of a VIM-2 metallo-beta-lactamase from Pseudomonas aeruginosa by a mercaptocarboxylate inhibitor” (J Med Chem, 2007).

Each structure is given as a SMILES string.

The assay in a line: Inhibition of IMP1 expressed in Escherichia coli BL21 (DE3).

The Ki is the dissociation constant of the complex between target and ligand, obtained from inhibition or displacement. Low values mean a stronger hold on the target, high ones a looser hold on the target. As to `O=C(O)C(CS)CCCc1ccccc1` (racemic), the inhibition constant Ki is 1660 nM.
